# In patent US12295939B2, “Substituted benzothiophene analogs as selective estrogen receptor degraders” (The Board of Trustees of the University of Illinois, priority 2018, dated 2025):
# How the values were obtained:
# [1] = test system: tamoxifen-resistant MCF-7:5C breast cancer cells; test: Growth inhibition in tamoxifen-resistant MCF-7:5C breast cancer cells; format: cell-based; conditions: MCF7:5C, MCF-7:5C cells; for IC50: assayed from 0.01 nM to 1 uM; for Emax: read-out: MCF7:5C Max efficacy (%)
# [2] = test system: tamoxifen-sensitive ER+ MCF-7:WS8 breast cancer cells; test: Growth inhibition in tamoxifen-sensitive ER+ MCF-7:WS8 breast cancer cells; format: cell-based; conditions: MCF7:WS8, MCF-7:WS8 cells; for IC50: assayed from 0.01 nM to 1 uM; for Emax: read-out: MCF7:WS8 Max efficacy (%)
# ER (ERE) = test: ER antagonism (ERE); format: cell-based
# Experimental: (§1) Example compounds were assayed to determine ER downregulation, relative binding affinity, and ER antagonism.
# ER = target: T1, ER (Homo sapiens, UniProt P03372); test: Relative binding affinity (RBA)
# T1 construct: endogenous in cells
# T1 sequence (P03372 1-595): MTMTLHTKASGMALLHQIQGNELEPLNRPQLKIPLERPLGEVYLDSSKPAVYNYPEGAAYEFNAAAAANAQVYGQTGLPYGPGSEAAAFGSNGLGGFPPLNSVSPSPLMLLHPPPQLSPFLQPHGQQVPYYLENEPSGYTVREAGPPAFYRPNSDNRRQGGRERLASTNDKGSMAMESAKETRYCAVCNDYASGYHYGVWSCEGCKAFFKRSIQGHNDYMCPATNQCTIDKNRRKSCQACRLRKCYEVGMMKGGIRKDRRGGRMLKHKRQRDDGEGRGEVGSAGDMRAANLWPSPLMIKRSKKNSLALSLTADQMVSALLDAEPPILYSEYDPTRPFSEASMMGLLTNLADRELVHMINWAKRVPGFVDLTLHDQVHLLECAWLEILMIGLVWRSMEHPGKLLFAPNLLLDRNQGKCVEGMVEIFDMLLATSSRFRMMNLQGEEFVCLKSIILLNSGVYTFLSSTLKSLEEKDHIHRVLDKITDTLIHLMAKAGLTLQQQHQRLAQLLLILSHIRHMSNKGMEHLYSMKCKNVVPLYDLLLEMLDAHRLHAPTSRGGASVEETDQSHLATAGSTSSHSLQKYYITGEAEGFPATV
# Experimental: as §1
SMILES,IC50 [1] [nM],IC50 [2] [nM],IC50 (ER (ERE)) [nM],RBA (%) (ER),Emax [1] [%],Emax [2] [%]
"Cc1ccccc1C(=O)c1sc2cc(O)ccc2c1Oc1ccc(OCCN2CC(CF)C2)cc1 [Compound 8, (3-(4-(2-(3-(fluoromethyl)azetidin-1-yl)ethoxy)phenoxy)-6-hydroxybenzo[b]thiophen-2-yl)(o-tolyl)methanone]",0.65 ± 0.03,0.73 ± 0.02,1.5 ± 0.09,46.5 ± 7,40,70
"Cc1cc(F)cc(C)c1C(=O)c1sc2cc(O)ccc2c1Oc1ccc(OCCN2CC(CF)C2)cc1 [Compound 5, (4-fluoro-2,6-dimethylphenyl)(3-(4-(2-(3-(fluoromethyl)azetidin-1-yl)ethoxy)phenoxy)-6-hydroxybenzo[b]thiophen-2-yl)methanone]",3.4 ± 0.5,0.41 ± 0.01,3.5 ± 0.06,–,55,70
"Cc1ccccc1C(=O)c1sc2cc(O)ccc2c1Oc1ccc(OCCN2CCCCC2)cc1 [Compound 65, (6-hydroxy-3-(4-(2-(piperidin-1-yl)ethoxy)phenoxy)benzo[b]thiophen-2-yl)(o-tolyl)methanone]",> 1000,0.39 ± 0.05,2.1 ± 0.06,91.8 ± 6,–,65
"Cc1cc(O)ccc1C(=O)c1sc2cc(O)ccc2c1Oc1ccc(OCCN2CC(CF)C2)cc1 [Compound 2, (3-(4-(2-(3-(fluoromethyl)azetidin-1-yl)ethoxy)phenoxy)-6-hydroxybenzo[b]thiophen-2-yl)(4-hydroxy-2-methylphenyl) methanone]",7.9 ± 0.15,0.5 ± 0.05,–,–,45,80
"Cc1cc(F)cc(C)c1C(=O)c1sc2cc(O)ccc2c1Oc1ccc(OCCN2CC[C@H](CF)C2)cc1 [Compound 64, (S)-(4-fluoro-2,6-dimethylphenyl)(3-(4-(2-(3-(fluoromethyl)pyrrolidin-1-yl)ethoxy)phenoxy)-6-hydroxybenzo[b]thiophen-2-yl)methanone]",0.16 ± 0.1,0.36 ± 0.001,0.05 ± 0.001,–,50,70
"O=C(c1ccccc1)c1sc2cc(O)ccc2c1Oc1ccc(OCCN2CC(CF)C2)cc1 [Compound 3, (3-(4-(2-(3-(fluoromethyl)azetidin-1-yl)ethoxy)phenoxy)-6-hydroxybenzo[b]thiophen-2-yl)(phenyl)methanone]",15 ± 4,0.55 ± 0.01,4.3 ± 0.1,30.7 ± 7,60,65
"C[C@]12CC[C@@H]3c4ccc(O)cc4C[C@@H](CCCCCCCCC[S+]([O-])CCCC(F)(F)C(F)(F)F)[C@H]3[C@@H]1CC[C@@H]2O (some centres unmarked) [Fulvestrant, fulvestrant, reference compound]",1.9 ± 0.01,0.48 ± 0.03,[…],–,55,75
"Cc1cc(F)ccc1C(=O)c1sc2cc(O)ccc2c1Oc1ccc(OC2CN(CCCF)C2)cc1 [Compound 16, (4-fluoro-2-methylphenyl)(3-(4-((1-(3-fluoropropyl)azetidin-3-yl)oxy)phenoxy)-6-hydroxybenzo[b]thiophen-2-yl)methanone]",0.95 ± 0.04,0.15 ± 0.02,11 ± 0.5,38.1 ± 9,50,70
"Cc1cc(F)cc(C)c1C(=O)c1sc2cc(O)ccc2c1Oc1ccc(OC2CN(C3CC3)C2)cc1 [Compound 67, (3-(4-((1-cyclopropylazetidin-3-yl)oxy)phenoxy)-6-hydroxybenzo[b]thiophen-2-yl)(4-fluoro-2,6-dimethylphenyl) methanone]",1 ± 0.8,0.42 ± 0.04,–,–,20,65
"Cc1cc(F)ccc1C(=O)c1sc2cc(O)ccc2c1Oc1ccc(OCCN2CC(CF)C2)cc1 [Compound 4, (4-fluoro-2-methylphenyl)(3-(4-(2-(3-(fluoromethyl)azetidin-1-yl)ethoxy)phenoxy)-6-hydroxybenzo[b]thiophen-2-yl)methanone]",0.2 ± 0.02,0.3 ± 0.02,2.7 ± 0.09,–,50,75
"Cc1ccc(C(=O)c2sc3cc(O)ccc3c2Oc2ccc(OCCN3CC(CF)C3)cc2)c(C)c1 [Compound 63, (2,4-dimethylphenyl)(3-(4-(2-(3-(fluoromethyl)azetidin-1-yl)ethoxy)phenoxy)-6-hydroxybenzo[b]thiophen-2-yl)methanone]",0.56 ± 0.005,0.47 ± 0.009,7.4 ± 0.3,–,50,65
"Cc1cc(F)cc(C)c1C(=O)c1sc2cc(O)ccc2c1Oc1ccc(OC2CN(CCCF)C2)cc1 [Compound 17, (4-fluoro-2,6-dimethylphenyl)(3-(4-((1-(3-fluoropropyl)azetidin-3-yl)oxy)phenoxy)-6-hydroxybenzo[b]thiophen-2-yl)methanone]",0.15 ± 0.06,0.55 ± 0.01,–,–,70,75

# The next lines start with results.
IC50 [1] [nM],IC50 [2] [nM],IC50 (ER (ERE)) [nM],RBA (%) (ER),SMILES,Emax [1] [%],Emax [2] [%]
1.4 ± 0.2,0.28 ± 0.03,–,120 ± 13,"O=C(c1cccc(F)c1)c1sc2cc(O)ccc2c1Oc1ccc(OCCN2CC(CF)C2)cc1 [Compound 62, (3-(4-(2-(3-(fluoromethyl)azetidin-1-yl)ethoxy)phenoxy)-6-hydroxybenzo[b]thiophen-2-yl)(3-fluorophenyl) methanone]",60,75
0.31 ± 0.07,0.5 ± 0.05,–,–,"Cc1ccccc1C(=O)c1sc2cc(O)ccc2c1Oc1ccc(OCCN2CCC2)cc1 [Compound 59, (3-(4-(2-(azetidin-1-yl)ethoxy)phenoxy)-6-hydroxybenzo[b]thiophen-2-yl)(o-tolyl)methanone]",35,70
0.12 ± 0.03,0.27 ± 0.006,–,–,"O=C(c1cccc(F)c1)c1sc2cc(O)ccc2c1Oc1ccc(OC2CN(CCCF)C2)cc1 [Compound 66, (3-fluorophenyl)(3-(4-((1-(3-fluoropropyl)azetidin-3-yl)oxy)phenoxy)-6-hydroxybenzo[b]thiophen-2-yl)methanone]",35,70
0.23 ± 0.06,0.1 ± 0.01,45 ± 15,–,"Cc1cccc(C)c1C(=O)c1sc2cc(O)ccc2c1Oc1ccc(OCCN2CC[C@@H](CF)C2)cc1 [Compound 9, (R)-(2,6-dimethylphenyl)(3-(4-(2-(3-(fluoromethyl)pyrrolidin-1-yl)ethoxy)phenoxy)-6-hydroxybenzo[b]thiophen-2-yl)methanone]",25,85
4.9 ± 0.2,0.04 ± 0.006,5.3 ± 0.08,27.8 ± 8,"Cc1ccccc1C(=O)c1sc2cc(O)ccc2c1Oc1ccc(OC2CN(CCCF)C2)cc1 [Compound 20, (3-(4-((1-(3-fluoropropyl)azetidin-3-yl)oxy)phenoxy)-6-hydroxybenzo[b]thiophen-2-yl)(o-tolyl)methanone]",70,75
0.12 ± 0.02,0.15 ± 0.02,5.2 ± 0.06,–,"O=C(c1ccccc1)c1sc2cc(O)ccc2c1Oc1ccc(OC2CN(CCCF)C2)cc1 [Compound 15, (3-(4-((1-(3-fluoropropyl)azetidin-3-yl)oxy)phenoxy)-6-hydroxybenzo[b]thiophen-2-yl)(phenyl)methanone]",40,60
0.28 ± 0.07,0.56 ± 0.01,12 ± 2,–,"Cc1cc(F)cc(C)c1C(=O)c1sc2cc(O)ccc2c1Oc1ccc(OCCN2CC[C@@H](CF)C2)cc1 [Compound 35, (R)-(4-fluoro-2,6-dimethylphenyl)(3-(4-(2-(3-(fluoromethyl)pyrrolidin-1-yl)ethoxy)phenoxy)-6-hydroxybenzo[b]thiophen-2-yl)methanone]",40,65
0.58 ± 0.04,1.3 ± 0.1,2.8 ± 0.1,9.15 ± 0.9,"O=C(c1ccc(F)cc1)c1sc2cc(O)ccc2c1Oc1ccc(OCCN2CC(CF)C2)cc1 [Compound 61, (3-(4-(2-(3-(fluoromethyl)azetidin-1-yl)ethoxy)phenoxy)-6-hydroxybenzo[b]thiophen-2-yl)(4-fluorophenyl) methanone]",55,70
1.2 ± 0.3,1.1 ± 0.1,6.4 ± 0.4,–,"O=C(c1ccc(O)cc1)c1sc2cc(O)ccc2c1Oc1ccc(OCCN2CC(CF)C2)cc1 [Compound 1, (3-(4-(2-(3-(fluoromethyl)azetidin-1-yl)ethoxy)phenoxy)-6-hydroxybenzo[b]thiophen-2-yl)(4-hydroxyphenyl) methanone]",30,75
0.65 ± 0.01,0.02 ± 0.004,1.9 ± 0.06,–,"Cc1ccccc1C(=O)c1sc2cc(O)ccc2c1Oc1ccc(OCCN2CC(C)C2)cc1 [Compound 60, (6-hydroxy-3-(4-(2-(3-methylazetidin-1-yl)ethoxy)phenoxy)benzo[b]thiophen-2-yl)(o-tolyl)methanone]",55,75
